Test results as given in patent US20250179092A1, “PYRIDO[1,2-A]PYRIMIDIN-4-ONE DERIVATIVES” (Hoffmann-La Roche Inc., priority 2022, published 2025).

Test system: mutant HTT protein (mHTT)
Assay: Homogeneous Time Resolved Fluorescence (HTRF) assay for HTT lowering
Assay type: cell-based
Details: reduction of mHTT in Huntington patient human cells (GENEAe020-A cell line), 48 hours incubation, mean from three replicates
Procedure: Homogeneous Time Resolved Fluorescence for HTT Lowering
The HTRF assay was adapted from Weiss et al. (Analytical Biochemistry Volume 395, Issue 1, 1 Dec. 2009, Pages 8-15 and Analytical Biochemistry Volume 410, 2011, Pages 304-306) to cells from GENEAe020-A cell line (https.//hpscreg.eu/cell-line/GENEAe020-A).
Compounds were tested for the effect of mutant HTT levels in Huntington patient human cells (GENEAe020-A cell line) using Homogeneous Time Resolved Fluorescence (HTRF) directed towards mutant HTT protein (mHTT). The GENEAe020-A cell line was derived by Genea Biocells from human blastocysts of HD donors. After assessing viability, cells were plated into 384 well collagen coated plates in growth media. Once cells adhered, media was removed and test compounds dissolved in DMSO were diluted with buffer solution and added to the adherent cells. Controls included experiments with no cells, DMSO with no compound, and Hsp90 inhibitor control. Cells were incubated with compounds and controls for 48 hours. Then, the cells were lysed and transferred to an assay plate containing HTRF labeled monoclonal antibodies developed by Paul Patterson (Ko et al., Brain Research Bulletin, Volume 56, Numbers 3 and 4, 2001, Pages 319-329) which recognize specific areas of the HTT protein. The terbium labeled “donor” antibody (2B7) binds to the N-terminus of the HTT protein and the Alexa488 labeled “acceptor” antibody (MW1) is specific for the polyglutamine region of the protein. Binding of the acceptor labeled antibody is more efficient for the extended polyglutamine repeats of mutant HTT protein which translates into a signal boost which enables the specific measurement of mutant HTT protein level. The HTRF donor and acceptor detection reagents were incubated with the cell lysate and the ratio between the signals of the two fluorophores is indicative of the relative quantities of mHTT.

Q: For `Cc1cn2nc(-c3cc(=O)n4cc(C5CCNC6(CC6)C5)ccc4n3)cc(C)c2n1` (racemic) [Example 1, rac-7-(4-azaspiro[2.5]octan-7-yl)-2-(2,8-dimethylimidazo[1,2-b]pyridazin-6-yl)pyrido[1,2-a]pyrimidin-4-one], which EC50 is on record?
A: 31 nM

Q: For `COc1cc(-c2cc(=O)n3cc(C4CCNC5(CC5)C4)ccc3n2)nn2cc(C)nc12` (racemic) [Example 2, rac-7-(4-azaspiro[2.5]octan-7-yl)-2-(8-methoxy-2-methyl-imidazo[1,2-b]pyridazin-6-yl)pyrido[1,2-a]pyrimidin-4-one], which EC50 is on record?
A: 21 nM

Q: How did the EC50 turn out when `Cc1nc2c(C)cc(-c3cc(=O)n4cc(C5CCNC6(CC6)C5)ccc4n3)nc2o1` (racemic) [Example 4, rac-7-(4-azaspiro[2.5]octan-7-yl)-2-(2,7-dimethyloxazolo[5,4-b]pyridin-5-yl)pyrido[1,2-a]pyrimidin-4-one] was run?
A: 49 nM

Q: `O=c1cc(-c2ccc3nc(Cl)cn3n2)nc2ccc(C3CCNC4(CC4)C3)cn12` (racemic) [Example 5, rac-7-(4-azaspiro[2.5]octan-7-yl)-2-(2-chloroimidazo[1,2-b]pyridazin-6-yl)pyrido[1,2-a]pyrimidin-4-one] was tested. Which EC50 did it give?
A: 259 nM

Q: For `Cc1cn2nc(-c3cc(=O)n4cc(C5CCNC6(CC6)C5)ccc4n3)cc(C(F)(F)F)c2n1` (racemic) [Example 3, rac-7-(4-azaspiro[2.5]octan-7-yl)-2-[2-methyl-8-(trifluoromethyl)imidazo[1,2-b]pyridazin-6-yl]pyrido[1,2-a]pyrimidin-4-one], which EC50 is on record?
A: 40 nM
